Experimental data taken from the supplement of paper PMC11451515.

Test system: NOMO1
Test: cell viability relative to DMSO control; higher = less cytotoxic
Details: 48 h
Procedure, shortened: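 Viability, reported as a per-plate percentage of DMSO wells with cell-free wells as background, came from CellTiter-Glo One luminescence. Reading took place after 48 h at 37°C. Before that, NOMO1 or SEM (500 cells/well) or P12-Ichikawa (1000 cells/well) leukemia cells, adapted for at least four passages in each medium, were seeded in 1536-well plates (5 μl) and pin-dosed with library compounds in DMSO, 47 μM to 0.79 nM over 11 threefold points.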

[1] = HPLM + 10% dialyzed FBS, 0.000781 µM
[2] = HPLM + 10% dialyzed FBS, 0.00234 µM
[3] = HPLM + 10% dialyzed FBS, 0.00702 µM
[4] = HPLM + 10% dialyzed FBS, 0.0211 µM
[5] = HPLM + 10% dialyzed FBS, 0.0632 µM
[6] = HPLM + 10% dialyzed FBS, 0.19 µM
[7] = HPLM + 10% dialyzed FBS, 0.569 µM
[8] = HPLM + 10% dialyzed FBS, 1.71 µM
[9] = HPLM + 10% dialyzed FBS, 5.12 µM
[10] = HPLM + 10% dialyzed FBS, 15.4 µM
[11] = HPLM + 10% dialyzed FBS, 46.1 µM
[12] = RPMI 5 mM glucose + 10% FBS, 0.000781 µM
[13] = RPMI 5 mM glucose + 10% FBS, 0.00234 µM
[14] = RPMI 5 mM glucose + 10% FBS, 0.00702 µM
[15] = RPMI 5 mM glucose + 10% FBS, 0.0211 µM
[16] = RPMI 5 mM glucose + 10% FBS, 0.0632 µM
[17] = RPMI 5 mM glucose + 10% FBS, 0.19 µM
[18] = RPMI 5 mM glucose + 10% FBS, 0.569 µM
[19] = RPMI 5 mM glucose + 10% FBS, 1.71 µM
[20] = RPMI 5 mM glucose + 10% FBS, 5.12 µM
[21] = RPMI 5 mM glucose + 10% FBS, 15.4 µM
[22] = RPMI 5 mM glucose + 10% FBS, 46.1 µM
[23] = RPMI 5 mM glucose + 10% dialyzed FBS, 0.000781 µM
[24] = RPMI 5 mM glucose + 10% dialyzed FBS, 0.00234 µM
[25] = RPMI 5 mM glucose + 10% dialyzed FBS, 0.00702 µM
[26] = RPMI 5 mM glucose + 10% dialyzed FBS, 0.0211 µM
[27] = RPMI 5 mM glucose + 10% dialyzed FBS, 0.0632 µM
[28] = RPMI 5 mM glucose + 10% dialyzed FBS, 0.19 µM
[29] = RPMI 5 mM glucose + 10% dialyzed FBS, 0.569 µM
[30] = RPMI 5 mM glucose + 10% dialyzed FBS, 1.71 µM
[31] = RPMI 5 mM glucose + 10% dialyzed FBS, 5.12 µM
[32] = RPMI 5 mM glucose + 10% dialyzed FBS, 15.4 µM
[33] = RPMI 5 mM glucose + 10% dialyzed FBS, 46.1 µM

| SMILES | cell viability [1] [%] | cell viability [2] [%] | cell viability [3] [%] | cell viability [4] [%] | cell viability [5] [%] | cell viability [6] [%] | cell viability [7] [%] | cell viability [8] [%] | cell viability [9] [%] | cell viability [10] [%] | cell viability [11] [%] | cell viability [12] [%] | cell viability [13] [%] | cell viability [14] [%] | cell viability [15] [%] | cell viability [16] [%] | cell viability [17] [%] | cell viability [18] [%] | cell viability [19] [%] | cell viability [20] [%] | cell viability [21] [%] | cell viability [22] [%] | cell viability [23] [%] | cell viability [24] [%] | cell viability [25] [%] | cell viability [26] [%] | cell viability [27] [%] | cell viability [28] [%] | cell viability [29] [%] | cell viability [30] [%] | cell viability [31] [%] | cell viability [32] [%] | cell viability [33] [%] |
| --- | --- | --- | --- | --- | --- | --- | --- | --- | --- | --- | --- | --- | --- | --- | --- | --- | --- | --- | --- | --- | --- | --- | --- | --- | --- | --- | --- | --- | --- | --- | --- | --- | --- |
| OC[C@H]1O[C@@H](O[C@@H]2[C@@H](CO)O[C@](O)(CO)[C@H]2O)[C@H](O)[C@@H](O)[C@H]1O | 108 | 110 | 110 | 113 | 99.5 | 92.2 | 103 | 95.1 | 102 | 47.7 | 78.1 | 91.1 | 95.4 | 111 | 109 | 105 | 100 | 105 | 97.3 | 88.1 | 71.9 | 86.2 | 91.4 | 86.6 | 103 | 97.5 | 95.7 | 101 | 100 | 98.7 | 92.5 | 68.1 | 80.6 |
| CC[C@H](CC[C@@H](C)[C@H]1CC[C@H]2[C@@H]3C\C=C/4C[C@@H](O)CC[C@]4(C)[C@H]3CC[C@]12C)C(C)C | 97.3 | 126 | 123 | 117 | 131 | 124 | 114 | 107 | 95.6 | 55.5 | 35.6 | 103 | 114 | 113 | 106 | 108 | 115 | 102 | 103 | 96.1 | 92.4 | 22.3 | 105 | 120 | 114 | 107 | 116 | 107 | 97.3 | 102 | 93.5 | 72.5 | 26.3 |
| CN(C)CCOc1cc(-c2cn[nH]c2)ccc1NC(=O)C1COc2ccccc2O1 (stereo not drawn) | 84.2 | 104 | 118 | 122 | 118 | 106 | 119 | 107 | 122 | 93.9 | 67.1 | 105 | 93.2 | 110 | 127 | 94.7 | 97.5 | 114 | 96.3 | 85.4 | 81.5 | 64.3 | 98.5 | 100 | 106 | 112 | 114 | 97.7 | 102 | 96.9 | 91.5 | 71.8 | 77 |
| CC1(C)CC(=O)c2c(C(F)(F)F)nn(-c3ccc(C(N)=O)c(NC4CCC(O)CC4)c3)c2C1 (stereo not drawn) | 83.4 | 77.1 | 69 | 72.5 | 96.9 | 58.7 | 16 | 14.1 | 15.1 | 15.6 | 78.3 | 86.5 | 81.8 | 82.1 | 84.2 | 82.2 | 47.7 | 12.5 | 9.32 | 8.93 | 8.3 | 75.8 | 91.7 | 94.1 | 102 | 94.5 | 81.6 | 48.9 | 17.1 | 12.1 | 12.2 | 11.6 | 80.6 |
| CC1(C)Cc2c(-c3ccccc3)c(-c3ccc(Cl)cc3)c(CC(=O)O)n2C1 | 115 | 106 | 130 | 131 | 111 | 120 | 128 | 106 | 108 | 99.5 | 90.6 | 102 | 123 | 118 | 124 | 119 | 115 | 112 | 101 | 99 | 111 | 96.8 | 110 | 114 | 105 | 115 | 117 | 113 | 114 | 106 | 105 | 91.8 | 89.2 |
| Cc1ccc(NC(=O)c2ccc(CN3CCN(C)CC3)cc2)cc1Nc1nc(-c2cccnc2)cs1 | 103 | 98.1 | 99.3 | 105 | 96.6 | 89.3 | 82.6 | 75.3 | 76.8 | 73 | 75.2 | 95.9 | 104 | 93 | 94.9 | 99.4 | 102 | 89.3 | 108 | 107 | 106 | 74.6 | 97.2 | 102 | 98.6 | 104 | 93.4 | 111 | 87.1 | 86.1 | 85.9 | 78.8 | 74.3 |
| O=NN(CCCl)C(=O)NCCCl | 89.1 | 107 | 99.1 | 116 | 128 | 113 | 127 | 101 | 106 | 127 | 109 | 84.4 | 99.3 | 102 | 104 | 118 | 116 | 107 | 120 | 110 | 110 | 101 | 91.4 | 94.5 | 109 | 112 | 101 | 98.9 | 108 | 109 | 102 | 109 | 97.9 |
| CC1(C)CCC[C@]2(C)[C@H]3CC(=O)O[C@]3(C)CC[C@@H]12 | 126 | 107 | 113 | 114 | 118 | 121 | 123 | 112 | 126 | 120 | 98.6 | 119 | 111 | 118 | 121 | 107 | 112 | 129 | 98 | 111 | 110 | 81.2 | 122 | 112 | 125 | 120 | 125 | 106 | 110 | 105 | 106 | 101 | 92.5 |
| c1cncc(CN2CCC(n3ncc4c(N5CCOCC5)nc(-c5ccc6[nH]ccc6c5)nc43)CC2)c1 | 92.1 | 107 | 92.5 | 94.8 | 84.4 | 89.1 | 78.6 | 72.7 | 60.1 | 44 | 35 | 88.4 | 80.4 | 88.1 | 92.7 | 87.8 | 82.2 | 83.6 | 82.8 | 80.5 | 49.3 | 15.7 | 87.3 | 83.9 | 96.4 | 97.7 | 86.2 | 85.2 | 69.2 | 70.4 | 71.2 | 46.6 | 20 |
| C/C=C(/C)C(=O)O[C@H]1C(C)=C2[C@H]([C@@H]1OC(=O)CCCCCCC)[C@@](C)(OC(C)=O)C[C@H](OC(=O)CCC)[C@@]1(O)[C@H]2OC(=O)[C@@]1(C)O | 100 | 110 | 99.4 | 127 | 56.6 | 12.5 | 7.29 | 4.31 | 2.9 | 2.91 | 5 | 112 | 112 | 130 | 119 | 92.7 | 17 | 9.53 | 10.4 | 6.41 | 3.83 | 5.08 | 117 | 121 | 129 | 123 | 68 | 13.4 | 8.71 | 10.1 | 7.55 | 5.66 | 5.67 |
| CC(=O)O[C@H]1C(=O)[C@]2(C)[C@@H](O)C[C@H]3OC[C@@]3(OC(C)=O)C2[C@H](OC(=O)C4=CC=CC=C4)[C@]5(O)C[C@H](OC(=O)[C@H](O)[C@@H](NC(=O)C6=CC=CC=C6)C7=CC=CC=C7)\C(=C1/C5(C)C)C (stereo partly drawn) | 74.6 | 34.7 | 39.5 | 41.3 | 39.6 | 31.7 | 33.1 | 36.6 | 35.5 | 29.1 | 33.1 | 124 | 27.4 | 23 | 25.4 | 25.4 | 22.5 | 23.2 | 23.9 | 23.1 | 23.2 | 19.6 | 106 | 32.5 | 25.2 | 31.5 | 24.8 | 26 | 29.7 | 31.4 | 29 | 27.1 | 20.3 |
| COc1ccc(-c2cc3nccn3c(Nc3ncccc3C(N)=O)n2)cc1OC | 125 | 111 | 107 | 117 | 124 | 111 | 110 | 96.6 | 109 | 89 | 93 | 90 | 95.3 | 118 | 107 | 99.7 | 111 | 95 | 103 | 102 | 92.7 | 103 | 106 | 106 | 113 | 95.2 | 116 | 107 | 106 | 105 | 107 | 109 | 101 |
| COC(=O)Nc1nc2cc(C(=O)c3cccs3)ccc2[nH]1 | 106 | 88.5 | 113 | 81.8 | 43.6 | 34.2 | 32.3 | 44 | 57.7 | 57.3 | 53.1 | – | – | – | – | – | – | – | – | – | – | – | 98.2 | 113 | 129 | 101 | 53.6 | 28.1 | 33.7 | 36.1 | 36.2 | 40.5 | 42.2 |
| CC1=CC=CC=C1N2\C(=N/C3=C(C(=CC=C3)C)C2=O)C[N]4C=NC5=C4N=CN=C5N | – | – | – | – | – | – | – | – | – | – | – | 107 | 106 | 122 | 108 | 110 | 106 | 107 | 94.4 | 69.2 | 72.9 | 67 | 108 | 109 | 109 | 97.1 | 113 | 92.6 | 94.8 | 80.8 | 67.2 | 64.5 | 61.1 |
| [NH2][Pt]1([NH2])[O]CC(=O)[O]1 | 96.9 | 109 | 98 | 101 | 96 | 108 | 97.8 | 106 | 85.9 | 91.3 | 88.3 | 94.5 | 83 | 99.1 | 85.2 | 82.4 | 93.8 | 98.7 | 92.9 | 93.8 | 80.5 | 84.3 | 92.7 | 86.9 | 90.7 | 98.1 | 93.2 | 89.1 | 87.8 | 92.5 | 83.9 | 77.8 | 104 |
